Measurements from patent publication US10538567B2, “Compounds as peptidic trigonal GLP1/glucagon/GIP receptor agonists” (priority 2016, dated 2020).
Numbered stars: 1 amine (or outer) side, 2 acyl side, 3 side chain; on linkers, the order of the positions; unused ones are H or OH. Square brackets hold non-standard residues; d marks the D form. Side chains are listed from the residue outwards. Peptide text beside a SMILES is read from it. * marks the point of attachment. γGlu = O=C(O)[C@H](CCC(=O)[*:2])N[*:1]; Palmitoyl = CCCCCCCCCCCCCCCC(=O)*; Aib = CC(C)(N)C(=O)O

What was measured:
[1] = Dynamic light scattering, hydrodynamic radius as surrogate for DLS interaction parameter kD; format: physicochemical; settings: for Delta Rh [nm] = Rh5 − Rh1: DLS buffer system A pH 4.5; for Rh1 [nm] c = 1 mg/ml / Rh5 [nm] c = 5 mg/ml: hydrodynamic radius, DLS buffer system A pH 4.5, method C, 25° C.
Excerpt: A monochromatic and coherent light beam (laser) is used to illuminate the liquid sample. Dynamic Light Scattering (DLS) measures light scattered from particles (1 nm≤radius≤1 μm) that undergo Brownian motion. This motion is induced by collisions between the particles and solvent molecules that themselves are moving due to their thermal energy. The diffusional motion of the particles results in temporal fluctuations of the scattered light [Pecora, R. Dynamic Light Scattering: Applications of Photon Correlation Spectroscopy, Plenum Press, 1985].
The scattered light intensity fluctuations are recorded and transformed into an autocorrelation function. By fitting the autocorrelation curve to an exponential function, the diffusion coefficient D of the particles in solution can be derived. The diffusion coefficient is then used to calculate the hydrodynamic radius Rh (or apparent Stokes radius) through the Stokes-Einstein equation assuming spherical particles. This calculation is defined in ISO 13321 and ISO 22412 [International Standard ISO13321 Methods for Determination of Particle Size Distribution Part 8: Photon Correlation Spectroscopy, International Organisation for Standardisation (ISO) 1996; International Standard ISO22412 Particle Size Analysis—Dynamic Light Scattering, International Organisation for Standardisation (ISO) 2008].
For every peptide solution, the hydrodynamic radius Rh and the diffusion constant D (related via the Stokes-Einstein equation) were determined as an average over triplicates. Both parameters were determined at different peptide concentrations (e.g., Rh1 and D1: 1 mg/ml and Rh5 and D5: 5 mg/ml) in the same buffer system. The difference of these parameters between low and high peptide concentration is a surrogate for the DLS interaction parameter kD. Rh5<Rh1 or D5>D1 correspond to kD>0 and therefore to repulsive inter-particle interactions that result in improved physical (or colloidal) stability.
DLS buffer system A) 25 mM acetate buffer pH 4.5, 3 mg/mL L-Methionine, 2.7 mg/mL m-cresol, 18 mg/mL Glycerol 85%
DLS Method C: DLS measurements were performed on a DynaPro Plate Reader II (Wyatt Technology, Santa Barbara, Calif., US) and using one of the following black, low volume, and non-treated plates: polystyrene 384 assay plate with clear bottom (Corning, N.Y., US), polystyrene 96 assay plate with clear bottom (Corning, N.Y., US), cyclo olefin polymer (COP) 384 assay plate with clear bottom (Aurora, Mont., US), or polystyrene 384 assay plate with clear bottom (Greiner Bio-One, Germany). The data were processed with the Dynamics software provided by Wyatt Technology. Parameters of the particle size distribution were determined with non-negatively constrained least squares (NNLS) methods using DynaLS algorithms. Measurements were taken at 25° C. with an 830 nm laser light source at an angle of 158°.
The hydrodynamic radius Rh of peptide samples was determined at different peptide concentrations (1 mg/ml and 5 mg/ml) in DLS buffer system A using DLS method C as described in Methods as surrogate for the DLS interaction parameter kD.

human GIP receptor = target: T1, human GIP receptor (Homo sapiens, UniProt P48546); test: cAMP response (HTRF) of HEK-293 cells stably expressing human GIP receptor; format: cell-based; settings: Table 8; read-out: EC50 hGIP R
T1 construct: expressed in transfected cells; host or cells: HEK-293
T1 sequence (P48546 22-466): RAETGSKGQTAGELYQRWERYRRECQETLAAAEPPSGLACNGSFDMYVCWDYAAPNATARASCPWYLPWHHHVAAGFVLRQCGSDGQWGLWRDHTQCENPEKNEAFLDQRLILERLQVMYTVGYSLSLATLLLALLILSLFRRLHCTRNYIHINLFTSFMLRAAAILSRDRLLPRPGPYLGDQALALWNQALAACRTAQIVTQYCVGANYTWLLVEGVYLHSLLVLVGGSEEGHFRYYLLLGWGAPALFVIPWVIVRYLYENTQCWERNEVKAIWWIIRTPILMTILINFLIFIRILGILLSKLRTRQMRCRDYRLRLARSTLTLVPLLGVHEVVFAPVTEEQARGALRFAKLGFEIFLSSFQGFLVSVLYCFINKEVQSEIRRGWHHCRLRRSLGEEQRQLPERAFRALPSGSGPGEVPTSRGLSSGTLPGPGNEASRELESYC
Description: Agonism of compounds for the receptors was determined by functional assays measuring cAMP response of HEK-293 cell lines stably expressing human GLP-1, GIP or glucagon receptor.
cAMP content of cells was determined using a kit from Cisbio Corp. (cat. no. 62AM4PEJ) based on HTRF (Homogenous Time Resolved Fluorescence). For preparation, cells were split into T175 culture flasks and grown overnight to near confluency in medium (DMEM/10% FBS). Medium was then removed and cells washed with PBS lacking calcium and magnesium, followed by proteinase treatment with accutase (Sigma-Aldrich cat. no. A6964). Detached cells were washed and resuspended in assay buffer (1×HBSS; 20 mM HEPES, 0.1% BSA, 2 mM IBMX) and cellular density determined. They were then diluted to 400000 cells/ml and 25 μl-aliquots dispensed into the wells of 96-well plates. For measurement, 25 μl of test compound in assay buffer was added to the wells, followed by incubation for 30 minutes at room temperature. After addition of HTRF reagents diluted in lysis buffer (kit components), the plates were incubated for 1 hr, followed by measurement of the fluorescence ratio at 665/616 nm. In vitro potency of agonists was quantified by determining the concentrations that caused 50% activation of maximal response (EC50).
Potencies of peptidic compounds at the GLP-1, glucagon and GIP receptors were determined by exposing cells expressing human glucagon receptor (hGlucagon R), human GIP receptor (hGIP-R) or human GLP-1 receptor (hGLP-1 R) to the listed compounds at increasing concentrations and measuring the formed cAMP as described in Methods.

| Delta Rh [nm] = Rh5 − Rh1 [1] [nm] | Rh1 [nm] c = 1 mg/ml [1] [nm] | Rh5 [nm] c = 5 mg/ml [1] [nm] | EC50 (human GIP receptor) [pM] | SMILES |
| --- | --- | --- | --- | --- |
| −0.9 | 2.5 | 1.7 | – | CCCCCCCCCCCCCCCC(=O)N[C@@H](CCC(=O)N[C@@H](CCC(=O)NCCCC[C@H](NC(=O)[C@H](CC(C)C)NC(=O)[C@H](CCCCN)NC(=O)[C@H](CO)NC(=O)[C@H](CC(C)C)NC(=O)[C@H](CC(=O)O)NC(=O)[C@H](CO)NC(=O)[C@@H](NC(=O)[C@H](Cc1ccccc1)NC(=O)[C@@H](NC(=O)CNC(=O)[C@H](Cc1c[nH]cn1)NC(=O)C(C)(C)NC(=O)[C@@H](N)Cc1c[nH]cn1)[C@@H](C)O)[C@@H](C)O)C(=O)N[C@@H](CCC(=O)O)C(=O)N[C@@H](CCC(=O)O)C(=O)N[C@@H](CCC(N)=O)C(=O)N[C@@H](CCCNC(=N)N)C(=O)N[C@@H](CCC(N)=O)C(=O)N[C@@H](CCCCN)C(=O)N[C@@H](CCC(=O)O)C(=O)N[C@@H](Cc1ccccc1)C(=O)N[C@H](C(=O)N[C@@H](CCC(=O)O)C(=O)N[C@@H](Cc1c[nH]c2ccccc12)C(=O)N[C@@H](CC(C)C)C(=O)N[C@@H](CCCCN)C(=O)N[C@@H](C)C(=O)NCC(=O)NCC(=O)N[C@@H](Cc1c[nH]cn1)C(=O)N1CCC[C@H]1C(=O)N[C@@H](CO)C(=O)NC(C)(C)C(=O)N[C@@H](CCCCN)C(=O)N1CCC[C@H]1C(=O)N1CCC[C@H]1C(=O)N1CCC[C@H]1C(=O)N[C@@H](CCCCN)C(N)=O)[C@@H](C)CC)C(=O)O)C(=O)O [SEQ ID NO: 6, H-Aib-H-G-T-F-T-S-D-L-S-K-L-K[gGlu-gGlu-Palm]-E-E-Q-R-Q-K-E-F-I-E-W-L-K-A-G-G-H-P-S-Aib-K-P-P-P-K-NH2] |
| −0.2 | 2.8 | 2.6 | 2.6 | CCCCCCCCCCCCCCCC(=O)N[C@@H](CCC(=O)N[C@@H](CCC(=O)NCCCC[C@H](NC(=O)[C@H](CC(C)C)NC(=O)[C@H](CCCCN)NC(=O)[C@H](CO)NC(=O)[C@H](CC(C)C)NC(=O)[C@H](CC(=O)O)NC(=O)[C@H](CO)NC(=O)[C@@H](NC(=O)[C@H](Cc1ccccc1)NC(=O)[C@@H](NC(=O)CNC(=O)[C@H](Cc1c[nH]cn1)NC(=O)C(C)(C)NC(=O)[C@@H](N)Cc1c[nH]cn1)[C@@H](C)O)[C@@H](C)O)C(=O)N[C@@H](CCC(=O)O)C(=O)N[C@@H](CCC(=O)O)C(=O)N[C@@H](CCC(N)=O)C(=O)N[C@@H](CCCNC(=N)N)C(=O)N[C@@H](CCC(N)=O)C(=O)N[C@@H](CCCCN)C(=O)N[C@@H](CCC(=O)O)C(=O)N[C@@H](Cc1ccccc1)C(=O)N[C@H](C(=O)N[C@@H](CCC(=O)O)C(=O)N[C@@H](Cc1c[nH]c2ccccc12)C(=O)N[C@@H](CC(C)C)C(=O)N[C@@H](CCCCN)C(=O)N[C@@H](C)C(=O)N[C@H](C)C(=O)NCC(=O)N1CCC[C@H]1C(=O)N1CCC[C@H]1C(=O)N[C@@H](CO)C(=O)NC(C)(C)C(=O)N[C@@H](CCCCN)C(=O)N1CCC[C@H]1C(=O)N1CCC[C@H]1C(=O)N1CCC[C@H]1C(=O)N[C@@H](CCCCN)C(N)=O)[C@@H](C)CC)C(=O)O)C(=O)O [SEQ ID NO: 9, H-Aib-H-G-T-F-T-S-D-L-S-K-L-K[gGlu-gGlu-Palm]-E-E-Q-R-Q-K-E-F-I-E-W-L-K-A-dAla-G-P-P-S-Aib-K-P-P-P-K-NH2] (H-H[Aib]HGTFTSDLSKLK([γGlu-γGlu-Palmitoyl])EEQRQKEFIEWLKA[dA]GPPS[Aib]KPPPK-NH2) |
| – | – | – | 2.6 | CCCCCCCCCCCCCCCC(=O)N[C@@H](CCC(=O)N[C@@H](CCC(=O)NCCCC[C@H](NC(=O)[C@H](CC(C)C)NC(=O)[C@H](CCCCN)NC(=O)[C@H](CO)NC(=O)[C@H](CC(C)C)NC(=O)[C@H](CC(=O)O)NC(=O)[C@H](CO)NC(=O)[C@@H](NC(=O)[C@H](Cc1ccccc1)NC(=O)[C@@H](NC(=O)CNC(=O)[C@H](Cc1c[nH]cn1)NC(=O)C(C)(C)NC(=O)[C@@H](N)Cc1c[nH]cn1)[C@@H](C)O)[C@@H](C)O)C(=O)N[C@@H](CCC(=O)O)C(=O)N[C@@H](CCC(=O)O)C(=O)N[C@@H](CCC(N)=O)C(=O)N[C@@H](CCCNC(=N)N)C(=O)N[C@@H](CCC(N)=O)C(=O)N[C@@H](CCCCN)C(=O)N[C@@H](CCC(=O)O)C(=O)N[C@@H](Cc1ccccc1)C(=O)N[C@H](C(=O)N[C@@H](CCC(=O)O)C(=O)N[C@@H](Cc1c[nH]c2ccccc12)C(=O)N[C@@H](CC(C)C)C(=O)N[C@@H](CCCCN)C(=O)N[C@@H](C)C(=O)N[C@H](C)C(=O)NCC(=O)N[C@@H](Cc1c[nH]cn1)C(=O)N1CCC[C@H]1C(=O)N[C@@H](CO)C(=O)NC(C)(C)C(=O)N[C@@H](CCCCN)C(=O)N1CCC[C@H]1C(=O)N1CCC[C@H]1C(=O)N1CCC[C@H]1C(=O)N[C@@H](CCCCN)C(N)=O)[C@@H](C)CC)C(=O)O)C(=O)O [SEQ ID NO: 7, H-Aib-H-G-T-F-T-S-D-L-S-K-L-K[gGlu-gGlu-Palm]-E-E-Q-R-Q-K-E-F-I-E-W-L-K-A-dAla-G-H-P-S-Aib-K-P-P-P-K-NH2] (H-H[Aib]HGTFTSDLSKLK([γGlu-γGlu-Palmitoyl])EEQRQKEFIEWLKA[dA]GHPS[Aib]KPPPK-NH2) |
| – | – | – | 1.1 | CCCCCCCCCCCCCCCC(=O)N[C@@H](CCC(=O)N[C@@H](CCC(=O)NCCCC[C@H](NC(=O)[C@H](CC(C)C)NC(=O)[C@H](CCCCN)NC(=O)[C@H](CO)NC(=O)[C@H](CC(C)C)NC(=O)[C@H](CC(=O)O)NC(=O)[C@H](CO)NC(=O)[C@@H](NC(=O)[C@H](Cc1ccccc1)NC(=O)[C@@H](NC(=O)CNC(=O)[C@H](Cc1c[nH]cn1)NC(=O)C(C)(C)NC(=O)[C@@H](N)Cc1c[nH]cn1)[C@@H](C)O)[C@@H](C)O)C(=O)N[C@@H](CCC(=O)O)C(=O)N[C@@H](CCC(=O)O)C(=O)N[C@@H](CCC(N)=O)C(=O)N[C@@H](CCCNC(=N)N)C(=O)N[C@@H](CCC(N)=O)C(=O)NC(C)(C)C(=O)N[C@@H](CCC(=O)O)C(=O)N[C@@H](Cc1ccccc1)C(=O)N[C@H](C(=O)N[C@@H](CCC(=O)O)C(=O)N[C@@H](Cc1c[nH]c2ccccc12)C(=O)N[C@@H](CC(C)C)C(=O)N[C@@H](CCCCN)C(=O)N[C@@H](C)C(=O)NCC(=O)NCC(=O)N1CCC[C@H]1C(=O)N1CCC[C@H]1C(=O)N[C@@H](CO)C(=O)NC(C)(C)C(=O)N[C@@H](CCCCN)C(=O)N1CCC[C@H]1C(=O)N1CCC[C@H]1C(=O)N1CCC[C@H]1C(=O)N[C@@H](CCCCN)C(N)=O)[C@@H](C)CC)C(=O)O)C(=O)O [SEQ ID NO: 10, H-Aib-H-G-T-F-T-S-D-L-S-K-L-K[gGlu-gGlu-Palm]-E-E-Q-R-Q-Aib-E-F-I-E-W-L-K-A-G-G-P-P-S-Aib-K-P-P-P-K-NH2] |
